Data as given in patent publication US20250186379A1, “METHODS AND AGENTS FOR DECREASING INSULIN RESISTANCE” (Whitehead Institute for Biomedical Research, priority 2021, published 2025).
“Also recorded” adds a separate entry of the source.

Key:
[1] = test system: lipogenic and gluconeogenesis genes (FASN, PCK1); test: Expression of lipogenic and gluconeogenesis genes (RNA-seq, RT-qPCR) in HepG2 cells; type: cell-based, human
Method: RNA was extracted using TRIzol™ reagent (Thermo Fisher Scientific, 15596026) following the manufacturer's instructions. cDNA synthesis was performed using qScript cDNA Supermix (QuantaBio, 95048-500) according to the manufacturer's instructions, using 1000 ng RNA as starting material.
qPCR was performed on a Thermo Fisher Scientific QuantStudio 6 machine using Fast SYBR™ Green Master Mix (Thermo Fisher, 4385618) and primers (listed below) according to the manufacturer's instructions. Expression data is presented after calculating the relative expression compared with the housekeeping gene RPLP0, using the equation Relative Quantification (RQ)=100/(2^(Target Gene Ct—RPLP0 Ct). When data is reported relative to a sample condition, the condition of reference was set as 1 and the data of the other conditions were reported as a ratio (condition/condition of reference).
RNA sequencing was performed by the Whitehead Institute Genome Technology Core. Libraries were prepared using the KAPA HyperPrep stranded RNA kit (Roche, KK8540) following manufacturer's instructions. Samples were sequenced on a HiSeq2500 in High-Output mode generating 50 bases, single-end reads.
RNA-sequencing (RNA-seq) bioinformatics analysis was performed on the Whitehead High-Performance Computing Facility using the nf-core RNA-seq pipeline v1.4.2^13 with Nextflow v20.04.1. Quality control of .fastq files was performed with FastQC v0.11.8. The reads were single-end and the strandedness was set to reverse. Low quality sequences were trimmed using Trim Galore!v0.6.4. Alignment was performed against the hg19 genome assembly using STAR v2.6.1d^17 and duplicates were marked using Picard MarkDuplicates v2.21.1. Quantification of transcripts was performed using featureCounts v1.6.4^18. Differential expression analysis was performed using edgeR v3.26.5^19. deepTools v3.3.1^20, dupRadar v1.14.0^21, Qualimap v.2.2.2-dev^22, and MultiQC v1.7 were used for quality control. […]

insulin receptor (IR) = test: Immunoblot for IR levels in HepG2 cells; type: cell-based, human; conditions: insulin resistant HepG2 cells treated with (RM) or without (R) metformin
Method: Cells were washed with ice-cold PBS and lysed in Cell Lytic M (Sigma-Aldrich C2978) supplemented with protease and phosphatase inhibitors (Sigma Aldrich, 11873580001 and 4906837001) directly on the wells. Lysates were placed into a 1.5 ml tube and mixed at 4° C. for 20 min and then centrifuged at 13,000 rpm for 15 min. Protein concentration was determined using a BCA Protein Assay Kit (Life Technologies, 23250) according to the manufacturer's instructions. Equal amounts of protein (5-50 μg per sample) were separated on 10% or 12% Bis-Tris gels in 5% XT MOPS running buffer (Bio-Rad Laboratories, 1610788) at 100V until dye front reached the end of the gel. Protein was then transferred to a 0.45 μM PVDF membrane (Millipore, IPVH00010) in ice cold transfer buffer (25 mM Tris, 192 mM glycine, 20% methanol) at 300 mA for 1 hour or 250 mA for 2 hours at 4° C. […] Immunoblot quantification was performed using the “analyze gel” tool on Fiji/ImageJ v2.1.0/153c. […]
Cells were washed with ice-cold PBS (Life Technologies, AM9625) and lysed in Cell Lytic M (Sigma Aldrich C2978) supplemented with protease and phosphatase inhibitors (Sigma Aldrich, 11873580001 and 4906837001) directly on the wells. […] Super natant was collected and protein concentration was determined using a BCA Protein Assay Kit (Life Technologies, 23250) according to the manufacturer's instructions. […]

IR condensates = test: Immunofluorescence for IR in human liver tissue from donors; type: in vivo; conditions: liver tissue of donors with T2D treated with metformin vs T2D and healthy donors
Source text: (§1) Images were then processed using Fiji/ImageJ v2.1.0/153c.
as §1

[2] = insulin-sensitive HepG2 cells, 3 nM insulin 4 hours

Compound	expression of the lipogenic gene FASN after insulin stimulation ([1]; cells exposed to pathologic levels (3 nM) of insulin for two days)	expression of gluconeogenesis genes [1, 2]	expression of lipogenic genes [1, 2]	IR levels (immunoblot for IRb) (insulin receptor (IR))	IR signal in condensates/puncta of hepatocytes (IR condensates)
insulin: insulin (Sigma Aldrich, I9278-5ML) used for acute stimulation and chronic physiological or pathological exposure	unchanged	downregulation of gluconeogenesis genes	upregulation of lipogenic genes		
CN(C)C(=N)N=C(N)N [metformin, reference compound]				not due to changes in IR levels; also recorded: does not alter IR protein level in insulin resistant cells	increased IR signals in condensates that approximated those seen in tissue from healthy donors; also recorded: IR punctate signals similar to those observed in healthy tissues
